Measured values reported in patent US20240131044A1, “METHOD FOR TREATING CANCER” (M.T.3, Inc., priority 2022, published 2024).

Test system: CHO cells
Experiment: Colony formation, survival fraction of CHO cells
Type: cell-based, Chinese hamsters
Description: An anti-cancer agent and a pharmaceutical composition were administered to test cells and then the cells were cultured. Then, after colonies were formed, the number of colonies was counted. Here, samples in which the concentration of the anti-cancer agent to be administered was varied were prepared, and in each sample, the survival fraction of the cells compared with the case where cells were cultured without administration of the pharmaceutical composition was measured. Regarding the type of anti-cancer agent to be administered, a predetermined anti-cancer agent was selected depending on the type of administration target cells. Note that cells that were cultured without administration of the pharmaceutical composition and the anti-cancer agent were used as a control. Hereinafter, these steps will be described.
Here, CHO cells, V79 cells, and canine-derived cancer cells were prepared as the test cells. The CHO cells are ovarian cells derived from Chinese hamsters, and the V79 cells are fibroblasts derived from the lungs of Chinese hamsters. Melanoma developing cells (CML6M) and soft tissue sarcoma developing cells (STSA-1) were used as the cancer cells.
The cancer cells were prepared by being cultured using an αMEM culture medium supplemented with 10% serum and an antibiotic. The cancer cells were prepared such that, when the concentration of the cells in a cell suspension obtained by subjecting the cultured cells to PBS washing and trypsin treatment, the concentration was within a predetermined concentration range. Here, the predetermined concentration ranges were 300 cells/well, 100 to 150 cells/well, and 500 to 1000 cells/well for the CHO/V79 cells, the melanoma cells, and the soft tissue sarcoma cells, respectively.
Next, the cancer cells were cultured in culture environments to which the anti-cancer agent was added at various concentrations, and were then allowed to form colonies. The culture periods for colony formation were a week, 10 days, and 14 days for CHO and V79, melanoma, and soft tissue sarcoma, respectively. After colonies were formed, washing using a physiological saline solution, fixation using 100% ethanol, and staining using 0.1% crystal violet were performed, and then the number of colonies per well was counted under a microscope. Note that, here, the colony was defined as containing 50 or more cells. […]
In the above examples, the anti-cancer agent and the pharmaceutical composition were administered to the test cells and then the cells were cultured. In this example, test cells were cultured after administering pharmaceutical composition (SQAP) alone without administering the anti-cancer agent to the test cells, and then the number of colonies was counted after colonies were formed. […]

CCCCCCCCCCCCCCCCCC(=O)OCCCO[C@H]1O[C@H](CS(=O)(=O)O)[C@@H](O)[C@H](O)[C@H]1O [SQAP, sulfoquinovosylacylpropanediol]
survival fraction (SQAP 30 μM alone): about 75%
survival fraction (mitomycin C 500 nM + SQAP 30 μM): about 1%
survival fraction (mitomycin C 500 μM + SQAP 30 μM (as restated in Example 10)): about 1%
